Patent US8846914B2, “Compositions to effect neuronal growth” (Neuralstem, Inc., priority 2003, dated 2014)

Key:
[1] = tested on: Differentiating hippocampal stem cells; assay: Committed neuronal progenitors (Ki-67 / TuJ1 co-staining); assay type: cell-based, human; details: treated for 10 days; FIG. 14
Method: FIG. 14 is a micrograph illustrating an example of production of committed neuronal progenitors by NSI-106. Differentiating hippocampal stem cells were treated with NSI-106 for 10 days, fixed, and stained for Ki-67 protein as well as TuJ1. Ki-67 protein is an endogenous marker of mitosis.
FIG. 14 illustrates committed neuronal progenitor production by NSI-106. Differentiating hippocampal stem cells are treated with NSI-106 for 10 days, fixed, and stained for Ki-67 protein to detect dividing cells as well as TuJ1 to detect cells that have differentiated into neurons, Ki-67 protein is an endogenous marker of mitosis.

[2] = tested on: human hippocampal stem cells; assay: Neuronal identification of mitotic cells (BrdU / TuJ1 co-staining); assay type: cell-based; details: BrdU during last forty-eight hours of two-week treatment; FIG. 13
From the text: FIG. 13 is a bar graph illustrating an example of neuronal identification of the mitotic cells in response to the compound treatment. Mitotic cells were labeled with BrdU during the last forty-eight hours of the two-week treatment with the test compounds. BrdU alone and BrdU together with TuJ1 as co-stained cells were quantified. Results from NSI-106 and LIF treatment are shown as an example. […] The bars represent the mean±SD from each of six wells.
In FIG. 13, mitotic cells are labeled with BrdU during the last forty-eight hours of a two-week treatment with the test compounds. BrdU alone and BrdU together with TuJ1 as co-stained cells are quantified.
As described in pending U.S. patent application Ser. No. 10/728,652, leukemia inhibitory factor (LIF), a cytokine growth factor, was selected from among several known neurotrophic factors as a positive control against which tested compounds can be compared. […] This effect is both consistent with the neural stem cell system in which the cells respond appropriately to the positive control by enhanced differentiation and/or mitosis, and achieves the objective of the assay method in which such cellular responses can be measured reproducibly and quantifiably.
Results from NSI-106 and the positive control, LIF treatment are shown as an example. […] The bars represent the mean±SD from each of six wells.

[3] = tested on: dentate gyrus of C57B16 adult mice; assay: In vivo neurogenesis, BrdU immunostaining of dentate gyrus; design: species or system mouse; details: for Neurogenesis in the dentate gyrus (BrdU-immunopositive cells): 10 mg/kg orally for ten days, healthy adult mice
Method: FIG. 9A and FIG. 9B are micrographs illustrating an example of BrdU immunostaining of a mouse dentate gyrus having been administered a vehicle and a compound. Mice were treated daily with various test compounds at 10 mg/kg p.o. (FIG. 9B) or vehicle alone (FIG. 9A) for ten days. The animals were injected daily with BrdU for the first seven days. At the end of the ten-day period, the animals were perfused and their brains sliced for immunostaining with anti-BrdU antibody and analysis.
FIGS. 10A and 10B are bar graphs illustrating an example of quantification of BrdU-immunopositive cells in the in vivo neurogenesis testing the compounds. Mice were treated with the various test compounds for in vivo neurogenesis in two cohorts. The cells from one dentate gyrus of each mouse in each test group were counted and average BrdU values immunoreactivity are shown. The symbols, * and ** indicate immunoreactivity increases of statistical significant the indicated p values. Seven compounds are especially effective in increasing the neurogenesis in the dentate gyrus of the healthy adult mice, the area known to have continued adult neurogenesis.
In one embodiment, fifteen of the compounds from Table I above are administered orally to mice at 10 mg/kg for ten days and co-administered bromodeoxyuridine (BrdU) by intraperitoneal injection for the first […] days. […] For example, in FIGS. 9A and 9B, BrdU immunostainings of hippocampal slices from two mice treated with either vehicle alone or NSI-158 are illustrated. In FIGS. 9A and 9B, the mice are treated daily for ten days with vehicle alone (FIG. 9A) or orally with various test compounds at 10 mg/kg (FIG. 9B). The animals are injected daily with BrdU for the first seven days. […]
Mice were treated with the various test compounds for in vivo neurogenesis in two cohorts as described above. The cells from one dentate gyrus of each mouse in each test group were counted and average BrdU immunoreactivity values are calculated. […]

[4] = tested on: human hippocampal stem cells differentiated for a period of 3-4 weeks; assay: 2° Assay Cell#/Apop (secondary neuroprotection/apoptosis assay); assay type: cell-based
From the text: Other potential AD therapeutics progressing in clinical trials, target neurodegeneration in the hopes of reducing the neuronal loss and cognitive decline. Apoptotic death involving caspase pathways and DNA fragmentation has been measured in in vitro and animal models of AD and in Alzheimer's diseased brain tissue. The extent of apoptosis leading to neuronal loss is of continual debate with most agreeing it has some effect, but that other neuronal death pathways definitely play a role (see Behl, 2000; Broe et al., 2001, Roth, 2001). […]
A number of neurogenic agents inhibit neuronal loss, caspase-3 activity and/or nuclear fragmentation compared to staurosporine vehicle control. These NSI small molecule agents are all effective at in vitro neurogenesis as determined by methods described. […] Instrumentation such as a Molecular Devices fluorescent plate reader or a […] Array Scan II instrument and the like may be used to measure the degeneration and apoptosis.
Another assay used to determine the ability of a compound to provide neuroprotection is an apoptosis assay. Apoptosis is measured using the activity of an early matter of the programmed cell death pathway, caspase-3. […] Caspase-3 activity is expressed as μM of cleaved substrate per hour. […]

CCCCNc1c(C2CCN(C(=O)CN(CC(C)C)S(C)(=O)=O)CC2)nc2cnccn12 [NSI-106]
Ki-67 and TuJ1 co-stained cells [1]: significant number of cells are co-stained | BrdU and TuJ1 co-stained mitotic cells [2]: produces mostly co-stained cells

NC(=O)C1CCCN1C(=O)c1cccnc1NCC1CCCCC1 (stereo not shown) [NSI-158]
Neurogenesis in the dentate gyrus (BrdU-immunopositive cells) [3]: especially effective at promoting neurogenesis | Dividing cells in the dentate gyrus versus vehicle (BrdU immunostaining) ([3]; 10 mg/kg p.o. daily for ten days, FIG. 9A/9B): far greater dividing cells

O=C(NCc1nc2ccccn2c1NCC1CCCO1)Oc1ccccc1 (stereo not shown) [NSI-182]
2° Assay Apop [4]: 100 ± 27 | 2° Assay Cell# [4]: 78 ± 34/

CC(C)CCNc1ncccc1C(=O)N1CCN(Cc2ccccc2)CC1 [NSI-189]
Neurogenesis in the dentate gyrus (BrdU-immunopositive cells) [3]: especially effective at promoting neurogenesis
